# According to the NIST ThermoML archive (doi:10.1016/j.jct.2017.12.011):
# Values joined by “and” are separate entries in the source; they are usually repeats but may differ in a detail not shown here. Equal values may be shown once. ± gives the expanded uncertainty stated by the source.
# Details: Pendant drop shape
compound,measurement,setting,value
O [water],surface tension liquid-gas,271.2 K,76.43 ± 1.8 mN/m and 76.39 ± 1.9 mN/m
same,surface tension liquid-gas,274.2 K,75.74 ± 1.8 mN/m and 75.89 ± 1.5 mN/m
same,surface tension liquid-gas,276.2 K,75.11 ± 1.5 mN/m and 75.34 ± 1.9 mN/m
same,surface tension liquid-gas,278.2 K,74.61 ± 2 mN/m and 74.98 ± 1.9 mN/m
same,surface tension liquid-gas,280.2 K,74.5 ± 1.4 mN/m and 74.21 ± 1.3 mN/m
